Test results published in US20120270238A1, “Peptides That Bind the Alpha-Fetoprotein (AFP) Receptor and Uses Thereof” (priority 2009, published 2012).
Each block holds one molecule with its values, some of them ahead of it. No end group written: not given here. *: point of attachment. FITC = O=C1OC2(c3ccc(O)cc3Oc3cc(O)ccc32)c2ccc(NC(=S)*)cc21

Legend:
[1] = tested on: alpha-fetoprotein receptor present in MCF-7 cell extracts; assay: Competitive ELISA with biotin labeled AFP on MCF-7 cell extract; format: binding, human; settings: for competition with biotin labeled AFP for the AFP receptor: qualitative, biotin labeled AFP 0.5 ug/ml; for inhibition (competition with AFP-biotin): constant AFP-biotin 0.5 μg/ml, plate coated with MCF-7 extract
Procedure: To see if the enzymatic digests were still biologically active, the enzymatic digests were used in a competitive based ELISA with whole AFP molecule labeled with biotin. The ability of the enzymatic digest dilutions to compete for the alpha-fetoprotein receptor present in MCF-7 cell extracts was determined using a constant 0.5 ug/ml of biotin labeled AFP. […] This fragment was run on a gradient tricine gel, transferred to a PVDF membrane and sent for N terminal sequencing. Results gave the amino acid (AA) sequence V-N-P-G . . . corresponding to AA 493 to 496 of Human AFP as published in Uniprot Data base (FIG. 2).
A plate can be coated with an extract of a cancer cell line known to have AFP receptors (for example, MCF-7). The plate is coated at 100 ug/ml total protein concentration and the peptide to be tested and AFP biotin is mixed with an initial peptide concentration of 250 μg/ml and subsequent half dilutions made. […] (FIG. 3). This assay was repeated with subsequent peptides synthesized in order to determine the smallest amino acid chain that would compete along with other peptides not in this region of the AFP molecule as well as from a different species.

[2] = tested on: cancer cell line that is known to have AFP receptors; assay: Binding of FITC labelled peptide to cancer cells; format: cell-based; settings: FITC at the N terminal; fluorescence; qualitative
[3] = tested on: MCF-7 cells (human breast cancer cell line); assay: Uptake of FITC labelled peptide into MCF-7 cells; format: cell-based; settings: FITC fluorescence; qualitative
Source text: FIGS. 10A and B show the results of this experiment. […] This experiment provides evidence that the peptides according to the present invention provide for intracellular delivery of bioactive agents to the interior of cells expressing AFPr, particularly cancer cells.

[4] = biological target: alpha-fetoprotein receptor (AFP receptor) (human); assay: competition assay, plate coated with MCF-7 extract, AFP-biotin constant at 0.5 µg/ml

Molecule: KQEFLIN [amino acids 549-555 of human AFP]
competition with biotin labeled AFP for the AFP receptor [1]: found to compete

Molecule: HKDLCQAQGVALQTMKQEFLIN [Fragment 3, amino acids 534-555 of human AFP]
inhibition (competition with AFP-biotin) ([1]; peptide 7.8 μg/ml): 50%
inhibition (competition with AFP-biotin) ([1]; peptide 250 μg/ml): 85%
competition with biotin labeled AFP for the AFP receptor [1]: found to compete

Molecule: FITC labeled Fragment 4: Fragment 4 synthesized with FITC at the N terminal ({FITC}-LQTMKQEFLIN)
binding to cancer cells [2]: demonstrated binding
uptake into MCF-7 human breast cancer cells [3]: uptake

% inhibition at 7.8 µg/ml [4]: 50%
% inhibition at 250 µg/ml [4]: 85%
Molecule: HKDLCQAQGVALQTMKQEFLIN [Fragment 3, …]
